How the values were obtained:
[1] = system: normal NK cells expanded with K562-aAPC; assay: percent inhibition of viability; higher = more inhibition; conditions: 72 h, IL-2 2.5 ng/mL
Procedure: (§1)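 Drug sensitivity and resistance testing on K562-aAPC-expanded normal NK cells: 5 concentrations (10-fold steps over a 10,000-fold range), 72 h at 37 °C, viability by CellTiter-Glo normalised to DMSO and benzethonium chloride controls; DSS from the fitted curve.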

DERL-7 (IL-2 2.5 ng/mL) [2] = assay: as above; conditions: 72 h
IMC-1 (IL-2 20 ng/mL) [3] = assay: as above; conditions: 72 h
KAI3 (IL-2 2.5 ng/mL) [4] = assay: as above; conditions: 72 h
KHYG-1 (IL-2 2.5 ng/mL) [5] = assay: as above; conditions: 72 h
NK-92 (IL-2 2.5 ng/mL) [6] = assay: as above; conditions: 72 h
NK-YS (IL-2 2.5 ng/mL) [7] = assay: as above; conditions: 72 h
NKL (IL-2 2.5 ng/mL) [8] = assay: as above; conditions: 72 h
SNK-6 (IL-2 2.5 ng/mL) [9] = assay: as above; conditions: 72 h
YT (IL-2 2.5 ng/mL) [10] = assay: as above; conditions: 72 h
[11] = system: normal primary NK cells, pool 1 (3 donors) (IL-2 2.5 ng/mL); assay: as above; conditions: 72 h
[12] = system: normal primary NK cells, pool 1 (3 donors), resting (IL-2 0 ng/mL); assay: as above; conditions: 72 h
[13] = system: normal primary NK cells, pool 2 (3 donors) (IL-2 2.5 ng/mL); assay: as above; conditions: 72 h
[14] = system: normal primary NK cells, pool 3 (3 donors) (IL-2 2.5 ng/mL); assay: as above; conditions: 72 h
[15] = system: normal NK cells expanded with K562-aAPC; assay: drug sensitivity score (DSS) (DSS units); higher = more sensitive; extreme values may be limits of the assay; conditions: 72 h; IL-2 2.5 ng/mL
Procedure: as §1

DERL-7 (IL-2 2.5 ng/mL) [16] = assay: as above; conditions: 72 h
IMC-1 (IL-2 20 ng/mL) [17] = assay: as above; conditions: 72 h
KAI3 (IL-2 2.5 ng/mL) [18] = assay: as above; conditions: 72 h
KHYG-1 (IL-2 2.5 ng/mL) [19] = assay: as above; conditions: 72 h
NK-92 (IL-2 2.5 ng/mL) [20] = assay: as above; conditions: 72 h
NK-YS (IL-2 2.5 ng/mL) [21] = assay: as above; conditions: 72 h
NKL (IL-2 2.5 ng/mL) [22] = assay: as above; conditions: 72 h
SNK-6 (IL-2 2.5 ng/mL) [23] = assay: as above; conditions: 72 h
YT (IL-2 2.5 ng/mL) [24] = assay: as above; conditions: 72 h
[25] = system: normal primary NK cells, pool 1 (3 donors) (IL-2 2.5 ng/mL); assay: as above; conditions: 72 h
[26] = system: normal primary NK cells, pool 1 (3 donors), resting (IL-2 0 ng/mL); assay: as above; conditions: 72 h
[27] = system: normal primary NK cells, pool 2 (3 donors) (IL-2 2.5 ng/mL); assay: as above; conditions: 72 h
[28] = system: normal primary NK cells, pool 3 (3 donors) (IL-2 2.5 ng/mL); assay: as above; conditions: 72 h

C[C@]1(O)C[C@@H](c2nc(-c3ccc4ccc(-c5ccccc5)nc4c3)c3c(N)nccn32)C1 [Linsitinib] (max concentration tested 10000 nM)
percent inhibition of viability [%]
Conditions	1 nM	10 nM	100 nM	1000 nM	10000 nM
DERL-7 (IL-2 2.5 ng/mL) [2]	-5.4	6.82	-0.65	-2.2	7.81
IMC-1 (IL-2 20 ng/mL) [3]	-3.5	-2.97	-5.08	-2.76	-3.58
KAI3 (IL-2 2.5 ng/mL) [4]	6.27	-1.21	-4.49	-3.92	-0.2
KHYG-1 (IL-2 2.5 ng/mL) [5]	-4.45	-3.38	-4.33	0.38	8.9
NK-92 (IL-2 2.5 ng/mL) [6]	2.33	5.73	13	14.5	29.1
NK-YS (IL-2 2.5 ng/mL) [7]	-6.48	-5.34	-2.18	3.9	7.93
NKL (IL-2 2.5 ng/mL) [8]	-9.46	-15.4	-8.54	-9.73	12.4
SNK-6 (IL-2 2.5 ng/mL) [9]	5.21	-12.6	-15.2	-16.7	-11
YT (IL-2 2.5 ng/mL) [10]	1.95	2.48	2.32	5.99	17.4
[1]	-3.84	-4.8	-1.86	-1.74	2.14
[11]	-5.96	-9.98	-7.82	-7.33	27.3
[12]	-20.4	-14.2	17.7	8.71	42.2
[13]	-2.53	1.1	-5.12	3.42	27.6
[14]	-0.78	1.11	5.04	-1.16	15.8

Conditions	drug sensitivity score
DERL-7 (IL-2 2.5 ng/mL) [16]	0
IMC-1 (IL-2 20 ng/mL) [17]	0
KAI3 (IL-2 2.5 ng/mL) [18]	0
KHYG-1 (IL-2 2.5 ng/mL) [19]	0
NK-92 (IL-2 2.5 ng/mL) [20]	3.33
NK-YS (IL-2 2.5 ng/mL) [21]	0
NKL (IL-2 2.5 ng/mL) [22]	0.01
SNK-6 (IL-2 2.5 ng/mL) [23]	0
YT (IL-2 2.5 ng/mL) [24]	0.72
[15]	0
[25]	0.79
[26]	3.19
[27]	1.67
[28]	0.23

NC(=O)N1CCC(CC(=O)N2CCC([C@H]3c4ncc(Br)cc4CCc4cc(Cl)cc(Br)c43)CC2)CC1 [Lonafarnib] (max concentration tested 10000 nM)
percent inhibition of viability [%]
Conditions	1 nM	10 nM	100 nM	1000 nM	10000 nM
DERL-7 (IL-2 2.5 ng/mL) [2]	3.48	0.48	5.47	44.5	73
IMC-1 (IL-2 20 ng/mL) [3]	-4.85	-3.21	-6.32	-1.06	36.6
KAI3 (IL-2 2.5 ng/mL) [4]	-4.05	0.27	9.71	30.5	38.6
KHYG-1 (IL-2 2.5 ng/mL) [5]	-3.98	-2.08	3.33	67.6	83.9
NK-92 (IL-2 2.5 ng/mL) [6]	-13	-12.8	-0.32	39.8	57.2
NK-YS (IL-2 2.5 ng/mL) [7]	-6.93	-2.78	13.2	56.3	79.7
NKL (IL-2 2.5 ng/mL) [8]	-11.3	-10.4	-4.09	19.2	37.3
SNK-6 (IL-2 2.5 ng/mL) [9]	3.51	1.11	8.58	31.1	33.3
YT (IL-2 2.5 ng/mL) [10]	-2.94	-2.27	4.51	28.1	60.1
[1]	-2.48	-4.83	1.81	10.5	25.2
[11]	-10.4	-3.37	6.08	19.4	88.9
[12]	-4.29	2.54	32.3	35.8	90
[13]	-4.12	2.21	1.62	17.7	73.4
[14]	-2.09	0.34	2.3	9.06	52.3

Conditions	drug sensitivity score
DERL-7 (IL-2 2.5 ng/mL) [16]	9.51
IMC-1 (IL-2 20 ng/mL) [17]	1.66
KAI3 (IL-2 2.5 ng/mL) [18]	6.28
KHYG-1 (IL-2 2.5 ng/mL) [19]	13
NK-92 (IL-2 2.5 ng/mL) [20]	7.81
NK-YS (IL-2 2.5 ng/mL) [21]	12.2
NKL (IL-2 2.5 ng/mL) [22]	4.21
SNK-6 (IL-2 2.5 ng/mL) [23]	6.27
YT (IL-2 2.5 ng/mL) [24]	6.47
[15]	1.95
[25]	8.02
[26]	11.6
[27]	6.83
[28]	4.3

Source: the supplement of paper PMC5908809
